These results are taken from US8288398B2, “Antiproliferative pyrimidyl, fused pyrimidyl and pyrimidyl hydrazones” (Merck Serono SA, priority 2005, dated 2012).

Experiment [1] deals with pancreatic cancer (MiaPaCa-2, human) cells. The experiment in a line: Tumor cell proliferation assay (ATP-lite), MiaPaCa-2. The class given is cell-based. As to conditions: MIA PaCa-2, 96 h; inhibition of tumor cell growth by 50%; MiaPaCa-2 human pancreatic cancer cells; 4 days incubation; ATP-lite readout. The procedure:
(§1) Assay 1: Tumor Cell Proliferation Assay:
(§2) Colon cancer (C26, murine), pancreatic cancer (MiaPaCa-2, human) cells were plated in 96-well white plates (Cat. No. 3917, Corning, Inc.) at 2.5×10^3 cells/well and cultured overnight at 37° C. in 5% CO2 in DMEM containing 10% FCS. Inhibitors were serially diluted in 100% DMSO and subsequently added to cells to reach a final concentration of 0.25% DMSO. Cell plates were incubated for an additional 4 days at 37° C. and 5% CO2 and cell proliferation was quantitated using the ATP-lite cell proliferation kit (Cat. No. 6016943, Perkin Elmer).
(§3) The ATPlite kit quantifies the ATP released from lysed cells by the generation of light caused by the reaction of the released ATP with the Luciferase and D-Luciferin contained in the kit. After the 4th day of incubation, the media is removed from the cell plates and replaced with 100 μL of PBS followed by 50 μL of the lysis solution. The plates are then shaken for 5 minutes on an orbital shaker followed by the addition of 50 μL of substrate solution. The plates are shaken for an additional 5 minutes followed by dark adaptation for 10 minutes and finally read on a Victor^3 V plate reader (1 second/well, Cat. No. 1420-041, Perkin Elmer).
(§4) Columns 2-3 show the concentration of compounds required to inhibit the growth of tumor cells by 50% (IC50 in μM).

The test system of experiment [2] is Colon cancer (C26, murine) cells. As to the kind of experiment: Tumor cell proliferation assay (ATP-lite), C26. The class given is cell-based. As to conditions: Mus musculus, 96 h, inhibition of tumor cell growth by 50%, 4 days incubation, ATP-lite readout. As for the experimental part:
as §1, §2, §3, §4

Consider `CC(=NN(C)c1nc(C(F)(F)F)nc2ccccc12)c1cccc(C)c1` [Compound 1], for which the IC50 in experiment [1] and in experiment [2] was less than 1 µM in each case. As to `CC(=NNc1nc(C(F)(F)F)nc2ccccc12)c1ccc(C)cc1` [Compound 3, N-(1-p-Tolyl-ethylidene)-N′-(2-trifluoromethyl-quinazolin-4-yl)-hydrazine], the IC50 in experiment [1] and in experiment [2] was 1 to 15 µM in each case.

For the compound `COc1ccc(C(C)=NNc2nc(C)nc3ccccc23)cc1` [Compound 4, N-[1-(4-methoxy-phenyl)-ethylidene]-N′-(2-methyl-quinazolin-4-yl)-hydrazine], the IC50 in experiment [1] and in experiment [2] was 1 to 15 µM in each case. In the case of `CC(=NNc1nc(C)nc2ccccc12)c1ccc(C)cc1` [Compound 5, N-(2-Methyl-quinazolin-4-yl)-N-(1-p-tolyl-ethylidene)-hydrazine], the IC50 in experiment [1] and in experiment [2] was 1 to 15 µM throughout. On to `CC(=NNc1nc(C)nc2ccccc12)c1cccc(C)c1` [Compound 6, N-(2-methyl-quinazolin-4-yl)-N′-(1-m-tolyl-ethylidene)-hydrazine], for which the IC50 in experiment [1] and in experiment [2] was 1 to 15 µM in each case.

On to `CC(=NNc1cc(-c2ccccc2)nc(C)n1)c1ccc(N(C)C)cc1` [Compound 8, Dimethyl-(4-{1-[(2-methyl-6-phenyl-pyrimidin-4-yl)-hydrazono]ethyl}-phenyl)amine], for which the IC50 in experiment [1] and in experiment [2] was less than 1 µM throughout.

With `COc1ccccc1-c1cc(NN=C(C)c2ccc(N(C)C)cc2)nc(C)n1` [Compound 9], the IC50 in experiment [1] and in experiment [2] was less than 1 µM throughout. For `CC(=NNc1cc(-c2c(C)noc2C)nc(C)n1)c1ccc(N(C)C)cc1` [Compound 10, (4-(1-{[6-(3,5-dimethyl-isoxazol-4-yl)-2-methyl-pyrimidin-4-yl]-hydrazono}-ethyl)-phenyl]-dimethylamine], the IC50 in experiment [1] and in experiment [2] was less than 1 µM in each case. Regarding `CC(=NNc1cc(-c2ccccc2OC(F)(F)F)nc(C)n1)c1ccc(N(C)C)cc1` [Compound 11, Dimethyl-[4-(1-{[2-methyl-6-(2-trifluoromethoxy-phenyl)-pyrimidin-4-yl]-hydrazono}-ethyl)-phenyl]-amine], the IC50 in experiment [1] and in experiment [2] was less than 1 µM throughout. As for `CC(=NNc1cc(-c2ccccc2OC(C)C)nc(C)n1)c1ccc(N(C)C)cc1` [Compound 12, [4-(1-{[6-(2-Isopropoxy-phenyl)-2-methyl-pyrimidin-4-yl]-hydrazono}-ethyl)-phenyl]-dimethylamine], the IC50 in experiment [1] is less than 1 µM; in experiment [2] it was 1 to 15 µM. On the same counts, the results for `CC(=NNc1cc(-c2ccccc2F)nc(C)n1)c1ccc(N(C)C)cc1` [Compound 13, [4-(1-{[6-(2-Fluoro-phenyl)-2-methyl-pyrimidin-4-yl]-hydrazono}-ethyl)-phenyl]-dimethylamine] are less than 1 µM and less than 1 µM.

Regarding `CC(=NNc1cc(-c2ccccc2N)nc(C)n1)c1ccc(N(C)C)cc1` [Compound 14, [4-(1-{[6-(2-amino-phenyl)-2-methyl-pyrimidin-4-yl]-hydrazono}-ethyl)-phenyl]-dimethylamine], the IC50 in experiment [1] and in experiment [2] was less than 1 µM in each case. For `COc1nc(NN=C(C)c2ccc(N(C)C)cc2)cc(-c2ccccc2)n1` [Compound 15, (4-{1-[(2-Methoxy-6-phenyl-pyrimidin-4-yl)-hydrazono]-ethyl}-phenyl)-dimethylamine], the IC50 in experiment [1] and in experiment [2] was less than 1 µM throughout. Take `CCc1nc(NN=C(C)c2ccc(N(C)C)cc2)cc(-c2ccccc2OC)n1` [Compound 16, [4-(1{[2-Ethyl-6-(2-methoxy-phenyl)-pyrimidin-4-yl]-hydrazono}-ethyl)-phenyl]-dimethylamine]: the IC50 in experiment [1] and in experiment [2] was less than 1 µM throughout. For `COc1ccccc1-c1cc(NN=C(C)c2ccc(N(C)C)cc2)ncn1` [Compound 17, [4-(1-{[6-(2-Methoxy-phenyl)-pyrimidin-4-yl]-hydrazono}-ethyl)-phenyl]dimethyl amine], the IC50 in experiment [1] and in experiment [2] was less than 1 µM in each case. For `CNc1ccc(C(C)=NNc2cc(-c3ccccc3)nc(C)n2)cc1` [Compound 18, Methyl-(4-{1-[(2-methyl-6-phenyl-pyrimidin-4-yl)-hydrazono]-ethyl}-phenyl)-amine], the IC50 in experiment [1] and in experiment [2] was less than 1 µM throughout. `CC(=NNc1cc(-c2ccccc2)nc(C)n1)c1ccc(NC(N)=S)cc1` [Compound 19, 4-({1-[(2-Methyl-6-phenyl-pyrimidin-4-yl)-hydrazono]-ethyl}-phenyl)-thiourea]: the IC50 in experiment [1] and in experiment [2] was 1 to 15 µM each time. `CC(=O)Nc1ccc(C(C)=NNc2cc(-c3ccccc3)nc(C)n2)cc1` [Compound 20, N-(4-{1-[(2-Methyl-6-phenyl-pyrimidin-4-yl)-hydrazono]-ethyl}-phenyl)-acetamide]: the IC50 in experiment [1] and in experiment [2] was 1 to 15 µM each time. On to `CNc1ccc(C(C)=NNc2nc(C)nc(-c3ccccc3)c2N)cc1` [Compound 21, 2-Methyl-4-{N′-[1-(4-methylamino-phenyl)-ethylidene]-hydrazino}-6-phenyl-pyrimidin-5-ylamine], for which the IC50 in experiment [1] and in experiment [2] was less than 1 µM in each case.

`CCC(=NNc1cc(-c2ccccc2)nc(C)n1)c1ccc(C)cc1` [Compound 22, N-(2-Methyl-6-phenyl-pyrimidin-4-yl)-N′-[1-p-tolyl-propylidene]-hydrazine]: the IC50 in experiment [1] and in experiment [2] was 1 to 15 µM throughout. Turning to `CC(=NNc1cc(-c2ccccc2)nc(C)n1)c1ccc(Cl)cc1` [Compound 23, N-[1-(4-Chloro-phenyl)ethylidene]-N′-(2-methyl-6-phenyl-pyrimidin-4-yl)-hydrazine], the IC50 in experiment [2] is 1 to 15 µM.

Consider `COc1ccc(C(C)=NNc2cc(-c3ccccc3)nc(C)n2)cc1` [Compound 24, N-[1-(4-Methoxy-phenyl)-ethylidene]-N′-(2-methyl-6-phenyl-pyrimidin-4-yl)-hydrazine], for which the IC50 in experiment [2] was less than 1 µM. `COc1ccccc1-c1cc(NN=C(C)c2ccc(C)cc2)ncn1` [Compound 25, N-[6-(2-Methoxy-phenyl)-pyrimidin-4-yl]-N′-[1-p-tolyl-ethylidene]-hydrazine]: the IC50 in experiment [1] and in experiment [2] was less than 1 µM in each case. Turning to `CCc1nc(NN=C(C)c2ccc(C)cc2)cc(-c2ccccc2OC)n1` [Compound 26, N-[2-Ethyl-6-(2-methoxy-phenyl)-pyrimidin-4-yl]-N′-[1-p-tolyl-ethylidene]-hydrazine], the IC50 in experiment [1] and in experiment [2] was less than 1 µM throughout. As to `CC(=NNc1cc(-c2ccccc2F)nc(C)n1)c1ccc(C)cc1` [Compound 27, N-[6-(2-Fluoro-phenyl)-2-methyl-pyrimidin-4-yl]-N′-[1-p-tolyl-ethylidene]-hydrazine], the IC50 in experiment [1] and in experiment [2] was less than 1 µM throughout.

As to `COc1cccc(-c2cc(NN=C(C)c3ccc(C)cc3)nc(C)n2)c1` [Compound 28, N-[6-(3-Methoxy-phenyl)-2-methylpyrimidin-4-yl]-N′-[1-p-tolyl-ethylidene]-hydrazine], in experiment [1], the IC50 is 1 to 15 µM.

Take `COc1ccc(-c2cc(NN=C(C)c3ccc(C)cc3)nc(C)n2)cc1` [Compound 30, N-[6-(4-Methoxy-phenyl)-2-methylpyrimidin-4-yl]-N′-[1-p-tolyl-ethylidene]-hydrazine]: the IC50 in experiment [1] fell in the range of 1 to 15 µM.

Compound `CC(=NNc1cc(-c2cccnc2)nc(C)n1)c1ccc(C)cc1` [Compound 37, N-(2-Methyl-6-pyridin-3-yl-pyrimidin-4-yl)-N′-[1-p-tolyl-ethylidene]-hydrazine] displayed an IC50 in experiment [2] of 1 to 15 µM. In the case of `CCc1ccc(C(C)=NNc2cc(-c3ccccc3)nc(C)n2)cc1` [Compound 43, N-[1-(4-Ethyl-phenyl)-ethylidene]-N′-(2-methyl-6-phenyl-pyrimidin-4-yl)-hydrazine], in experiment [2], the IC50 is less than 1 µM. For the compound `CC(=NNc1cc(-c2ccccc2)nc(C)n1)c1ccc(Br)cc1` [Compound 44, N-[1-(4-Bromo-phenyl)-ethylidene]-N′-(2-methyl-6-phenyl-pyrimidin-4-yl)-hydrazine], the IC50 in experiment [2] is 1 to 15 µM. In turn, `CC(=NNc1cc(-c2ccccc2)nc(C)n1)c1ccc(I)cc1` [Compound 45, N-[1-(4-Iodo-phenyl)-ethylidene]-N′-(2-methyl-6-phenyl-pyrimidin-4-yl)-hydrazine] had an IC50 in experiment [2] of 1 to 15 µM. In experiment [2], `CC(=NNc1cc(-c2ccccc2)nc(C)n1)c1cccc(N)c1` [Compound 46, 3-{1-[(2-Methyl-6-phenyl-pyrimidin-4-yl)-hydrazono]-ethyl}-phenylamine] showed an IC50 of 1 to 15 µM. On the same count and under the same terms, in the case of `CC(=NNc1cc(-c2ccccc2)nc(C)n1)c1ccc(Cl)c(Cl)c1` [Compound 47, N-[1-(3,4-Dichloro-phenyl)-ethylidene]-N′-(2-methyl-6-phenyl-pyrimidin-4-yl)-hydrazine] it was 1 to 15 µM. In experiment [2], `CC(=NNc1cc(-c2ccccc2)nc(C)n1)c1ccc(O)cc1` [Compound 48, 4-{1-[(2-Methyl-6-phenyl-pyrimidin-4-yl)-hydrazono]-ethyl}-phenol] registered an IC50 of 1 to 15 µM.

The IC50 is the concentration at which inhibition is half-maximal. Low readings indicate higher potency, high ones lower potency.
